Measured values from ChEMBL document CHEMBL1129474, “Quinazoline antifolates thymidylate synthase inhibitors: lipophilic analogues with modification to the C2-methyl substituent” (J Med Chem, 1996).

Tests used:
L1210 = assay: In vitro inhibitory activity against L1210 cell growth; assay type: functional, cell-based; conditions: Mus musculus
Thymidylate synthase = Thymidylate synthase (Mus musculus, UniProt P07607); assay: In vitro inhibitory activity against thymidylate synthase partially purified from L1210 mouse leukemia cells; assay type: cell-based
[1] = Relative resistant ratio of compound as L1210:1565 IC50 over L1210 IC50; assay type: functional

Sequence of Thymidylate synthase (P07607 whole entry): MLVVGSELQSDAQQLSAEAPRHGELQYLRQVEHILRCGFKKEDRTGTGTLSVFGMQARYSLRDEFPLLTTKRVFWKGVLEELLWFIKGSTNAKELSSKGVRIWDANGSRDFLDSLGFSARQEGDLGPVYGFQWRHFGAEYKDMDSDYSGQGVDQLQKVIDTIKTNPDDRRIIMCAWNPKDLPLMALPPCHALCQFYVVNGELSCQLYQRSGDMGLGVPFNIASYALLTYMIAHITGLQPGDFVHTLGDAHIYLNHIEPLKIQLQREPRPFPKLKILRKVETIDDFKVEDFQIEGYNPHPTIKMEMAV

IC50 (L1210) | IC50 (Thymidylate synthase) | SMILES | Ratio [1]
14000 nM | 1040 nM | C#CCN(Cc1ccc2nc(CSc3nc(N)cc(O)n3)nc(O)c2c1)c1ccc(C(=O)NCc2cccc([N+](=O)[O-])c2)cc1 | –
76 nM | 56 nM | Cc1nc2cc(C)c(CN(C)c3ccc(C(=O)NCc4cccc([N+](=O)[O-])c4)c(F)c3)cc2c(=O)[nH]1 | –
150 nM | – | C#CCN(Cc1ccc2nc(C)nc(O)c2c1)c1ccc(C(=O)NC(CCC(=O)O)C(=O)O)cc1 (configuration not stated) | –
100000 nM | – | C#CCN(Cc1ccc2nc(CSc3ncccn3)nc(O)c2c1)c1ccc(C(=O)NC(CCC(=O)O)C(=O)O)cc1 (configuration not stated) | –
1900 nM | 380 nM | C#CCN(Cc1ccc2nc(CN3CCOCC3)nc(O)c2c1)c1ccc(C(=O)NCc2cccc([N+](=O)[O-])c2)cc1 | –
640 nM | – | C#CCN(Cc1cc2c(O)nc(CSc3ncccn3)nc2cc1C)c1ccc(C(=O)NCc2cccc([N+](=O)[O-])c2)c(F)c1 | 0.65
2700 nM | 620 nM | C#CCN(Cc1ccc2nc(CN(C)C)nc(O)c2c1)c1ccc(C(=O)NCc2cccc([N+](=O)[O-])c2)cc1 | –
580 nM | 110 nM | C#CCN(Cc1cc2c(O)nc(CN3CCN(C)CC3)nc2cc1C)c1ccc(C(=O)NCc2cccc([N+](=O)[O-])c2)c(F)c1 | 1.1
2200 nM | 840 nM | C#CCN(Cc1ccc2nc(CSc3nccc(N)n3)nc(O)c2c1)c1ccc(C(=O)NCc2cccc([N+](=O)[O-])c2)cc1 | –
> 20000 nM | 28 nM | Cc1cc2nc(CN3CCN(C)CC3)nc(O)c2cc1CN(C)c1ccc(C(=O)NC(CCC(=O)O)C(=O)O)c(F)c1 (configuration not stated) | –
4800 nM | 300 nM | C#CCN(Cc1ccc2nc(CO)nc(O)c2c1)c1ccc(C(=O)NCc2cccc([N+](=O)[O-])c2)cc1 | –
– | 110 nM | C#CCN(Cc1cc2c(=O)[nH]c(CSc3ncccn3)nc2cc1C)c1ccc(C(=O)NCc2cccc([N+](=O)[O-])c2)c(F)c1 | –
> 20000 nM | > 1700 nM | C#CCN(Cc1ccc2nc(CN)nc(O)c2c1)c1ccc(C(=O)NCc2cccc([N+](=O)[O-])c2)cc1 | –
680 nM | – | C#CCN(Cc1cc2c(O)nc(CN(C)C)nc2cc1C)c1ccc(C(=O)NCc2cccc([N+](=O)[O-])c2)c(F)c1 | 0.76
1400 nM | – | C#CCN(Cc1ccc2nc(C)nc(O)c2c1)c1ccc(C(=O)NCc2cccc([N+](=O)[O-])c2)cc1 | 0.3
950 nM | 200 nM | C#CCN(Cc1cc2c(O)nc(CN(C)CCN(C)C)nc2cc1C)c1ccc(C(=O)NCc2cccc([N+](=O)[O-])c2)c(F)c1 | –
7800 nM | 4200 nM | C#CCN(Cc1ccc2nc(CNC)nc(O)c2c1)c1ccc(C(=O)NCc2cccc([N+](=O)[O-])c2)cc1 | –
12000 nM | 3300 nM | C#CCN(Cc1ccc2nc(CSc3nccc(O)n3)nc(O)c2c1)c1ccc(C(=O)NCc2cccc([N+](=O)[O-])c2)cc1 | –
– | 140 nM | C#CCN(Cc1cc2c(=O)[nH]c(CN(C)C)nc2cc1C)c1ccc(C(=O)NCc2cccc([N+](=O)[O-])c2)c(F)c1 | –
260 nM | – | C#CCN(Cc1cc2c(O)nc(C)nc2cc1C)c1ccc(C(=O)NCc2cccc([N+](=O)[O-])c2)c(F)c1 | 1
2400 nM | 1210 nM | C#CCN(Cc1ccc2nc(CCl)nc(O)c2c1)c1ccc(C(=O)NCc2cccc([N+](=O)[O-])c2)cc1 | –
> 20000 nM | 180 nM | C#CCN(Cc1ccc2nc(CNS(C)(=O)=O)nc(O)c2c1)c1ccc(C(=O)NCc2cccc([N+](=O)[O-])c2)cc1 | –
6700 nM | 640 nM | C#CCN(Cc1ccc2nc(COCCOC)nc(O)c2c1)c1ccc(C(=O)NCc2cccc([N+](=O)[O-])c2)cc1 | –
700 nM | 80 nM | Cc1cc2nc(CO)nc(O)c2cc1CN(C)c1ccc(C(=O)NCc2cccc([N+](=O)[O-])c2)c(F)c1 | –
700 nM | 72 nM | C#CCN(Cc1cc2c(O)nc(CO)nc2cc1C)c1ccc(C(=O)NCc2cccc([N+](=O)[O-])c2)c(F)c1 | 0.17
5000 nM | 820 nM | C#CCN(Cc1ccc2nc(CN(C)CCN(C)C)nc(O)c2c1)c1ccc(C(=O)NCc2cccc([N+](=O)[O-])c2)cc1 | –
7800 nM | 160 nM | C#CCN(Cc1cc2c(O)nc(CN(CCO)CCO)nc2cc1C)c1ccc(C(=O)NCc2cccc([N+](=O)[O-])c2)c(F)c1 | –
580 nM | 84 nM | Cc1cc2nc(CN(C)C)nc(O)c2cc1CN(C)c1ccc(C(=O)NCc2cccc([N+](=O)[O-])c2)c(F)c1 | –
11000 nM | 380 nM | C#CCN(Cc1ccc2nc(CC#N)nc(O)c2c1)c1ccc(C(=O)NCc2cccc([N+](=O)[O-])c2)cc1 | –

SMILES | IC50 (L1210) | IC50 (Thymidylate synthase) | Ratio [1]
C#CCN(Cc1ccc2nc(CSc3ncccn3)nc(O)c2c1)c1ccc(C(=O)NCc2cccc([N+](=O)[O-])c2)cc1 | 2000 nM | 480 nM | –
C#CCN(Cc1cc2c(O)nc(CN3CCOCC3)nc2cc1C)c1ccc(C(=O)NCc2cccc([N+](=O)[O-])c2)c(F)c1 | 340 nM | 100 nM | 1.1
C#CCN(Cc1ccc2nc(C)nc(O)c2c1)c1ccc(C(=O)NC(Cc2cccc([N+](=O)[O-])c2)C(=O)O)cc1 (configuration not stated) | 9000 nM | 10 nM | –
C#CCN(Cc1ccc2nc(CN3CCN(C)CC3)nc(O)c2c1)c1ccc(C(=O)NCc2cccc([N+](=O)[O-])c2)cc1 | 5300 nM | 900 nM | –
C#CCN(Cc1ccc2nc(CN3CCC(O)C3)nc(O)c2c1)c1ccc(C(=O)NCc2cccc([N+](=O)[O-])c2)cc1 (configuration not stated) | 9000 nM | 600 nM | –
